The source of these data is PubChem BioAssay AID651893 (Broad Institute, 2012).

The assay has as its system T. b. rhodesiense STIB900 proliferation, Alamar blue, 72 h. Briefly: African trypanosome bloodstream form growth inhibition – STIB900 strain, plate reader, cherry pick, dose response (AID 651893).

As a reminder, the IC50 is the concentration needed to halve the response being measured. On to `C[C@@H]1CN([C@@H](C)CO)C(=O)c2cccc(NC(=O)c3ccncc3)c2O[C@H]1CN(C)Cc1ccc(Oc2ccccc2)cc1`, for which the concentration for half-maximal inhibition (IC50) was 0.715 µM.
